According to EP0148440A1, “1,3,4,5-Tetrahydrobenzo(c,d)indoles, process for their preparation and their uses” (Troponwerke GmbH & Co. KG, priority 1983, dated 1985):

Biological target: T1, 5-HT2 (Rattus norvegicus, UniProt P14842)
T1 construct: Präfrontaler Cortex-Ratte; from tissue; host or cells: rat prefrontal cortex membranes
Assay: Affinity to serotonin receptors: 5-HT2, displacement of ^3H-Ketanserin
Type: binding
Settings: Präfrontaler Cortex-Ratte membranes, read-out: Inhibitionskonstante Ki

T1 sequence (P14842 whole entry): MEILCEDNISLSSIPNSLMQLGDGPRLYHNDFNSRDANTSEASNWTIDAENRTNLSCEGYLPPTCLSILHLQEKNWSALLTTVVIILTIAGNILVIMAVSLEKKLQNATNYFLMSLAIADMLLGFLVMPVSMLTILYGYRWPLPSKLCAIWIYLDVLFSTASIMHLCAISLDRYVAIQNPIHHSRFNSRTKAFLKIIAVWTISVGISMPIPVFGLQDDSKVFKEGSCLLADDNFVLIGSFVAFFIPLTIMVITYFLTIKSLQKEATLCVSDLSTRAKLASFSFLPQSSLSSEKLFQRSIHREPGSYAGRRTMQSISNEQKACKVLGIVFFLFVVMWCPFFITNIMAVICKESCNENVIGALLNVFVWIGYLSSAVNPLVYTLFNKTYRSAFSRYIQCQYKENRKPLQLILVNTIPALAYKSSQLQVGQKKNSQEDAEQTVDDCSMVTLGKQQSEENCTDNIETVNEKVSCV

Compound: CCCN(CCC)C1Cc2c[nH]c3ccc(OC)c(c23)C1 (stereo not shown) [Beispiel 1, 6-Methoxy-4-dipropylamino-1,3,4,5-tetrahydrobenz[c,d]-indol]
- Ki: 1800 nM
